Test results from US10231956B2, “3-(1H-pyrrolo[3,2-C]pyridin-2-YL)-1 H-pyrazolo[4,3-B]pyridines and therapeutic uses thereof” (Samumed, LLC, priority 2015, dated 2019).

What was measured:
[1] = system: Wnt activity (Sp5-Luc reporter, SW480 colon carcinoma cells); experiment: Sp5-Luc reporter gene screening assay for Wnt activity in SW480 cells; format: cell-based; settings: Homo sapiens; for EC50: luminescence, overnight incubation
How it was run: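 Luminescence read-out (BrightGlo) from stable Sp5-Luc SW480 cells, normalized to DMSO-only wells. Cells were treated overnight at 37° C in 1% FBS medium across a 1:3, 10-point series starting at 10 μM. EC50 from variable-slope four-parameter regression; percent inhibition at 10 μM given where EC50 >10 μM.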

[2] = system: primary human mesenchymal stem cells (hMSCs); experiment: Induction of chondrogenesis in primary human mesenchymal stem cells (nodule count); format: cell-based; settings: 144 h, 6 days; for Emax: TGF-β3 10 ng/mL as positive control, read-out: Max. Activity as % TGF-β3 activity; for EC50: concentration required to induce 50% levels of chondrogenesis vs TGF-β3, read-out: Conc (nM) of 50% TGF-β3 activity
Method: Representative compounds were screened using primary human mesenchymal stem cells (hMSCs) to determine their ability to induce chondrogenesis (process by which cartilage is developed).
Human Mesenchymal Stem Cell Culture: Primary human mesenchymal stem cells (hMSCs) were purchased from Lonza (Walkersville, Md.) and expanded in Mesenchymal Stem Cell Growth Media (Lonza). Cells between passage 3 and 6 were used for the experiments.
Compound Screening: Each compound was dissolved in DMSO as a 10 mM stock and used to prepare compound source plates. Serial dilution (1:3, 6-point dose-response curves from 2700 nM to 10 nM) and compound transfer was performed using the ECHO 550 (Labcyte, Sunnyvale, Calif.) into 96-well clear bottom assay plates (Greiner Bio-One) with appropriate DMSO backfill for a final DMSO concentration of 0.03%. hMSCs were plated at 20,000 cells/well in 250 μL/well Incomplete Chondrogenic Induction Medium (Lonza; DMEM, dexamethasone, ascorbate, insulin-transferrin-selenium [ITS supplement], gentamycin-amphotericin [GA-1000], sodium pyruvate, proline and L-glutamine). TGF-β3 (10 ng/mL) was used as a positive control for differentiation while negative control wells were treated with 75 nL DMSO for normalization and calculating EC50 values. Cells were incubated at 37° C. and 5% CO2 for 6 days. To image chondrogenic nodules, the cells were fixed using 4% formaldehyde (Electron Microscopy Sciences), and stained with 2 μg/mL Rhodamine B (Sigma-Aldrich) and 20 μM Nile Red (Sigma-Aldrich) [Johnson K., et. al, A Stem Cell-Based Approach to Cartilage Repair, Science, (2012), 336(6082), 717-721]. The nodules imaged (4 images per well at 4× magnification) by excitation at 531 nm and emission at 625 nm and quantified using the CellInsight CX5 (Thermo Scientific). Number of nodules in each well was normalized to the average of 3 DMSO treated wells on the same plate using Excel (Microsoft Inc.). The normalized averages (fold change over DMSO) of 3 replicate wells for each compound concentration were calculated. Due to solubility limitations of some of the compounds, curve fitting was incomplete leading to inaccurate EC50 determinations.
Using TGF-β3 as a positive control, the concentration of representative compounds required to induce 50% levels of chondrogenesis is reported. In addition, the maximum activity of each compound and the respective dose that each compound reached maximum chondrogenesis activity is reported.

Row | EC50 [1] [nM] | EC50 [2] [nM] | Compound | Emax [2] [%] | inhibition at 10 µM ([1]; given for EC50 >10 μM, 10 μM, read-out: percent inhibition at 10 μM) [%]
1 | 599 | 900 | Fc1ccc(-c2nccc3[nH]c(-c4n[nH]c5ccc(-c6cncc(CN7CCC(F)(F)C7)c6)nc45)cc23)cc1 [Compound 54, 5-(5-((3,3-Difluoropyrrolidin-1-yl)methyl)pyridin-3-yl)-3-(4-(4-fluorophenyl)-1H-pyrrolo[3,2-c]pyridin-2-yl)-1H-pyrazolo[4,3-b]pyridine] | 106 | –
2 | 4160 | – | CN(C)Cc1cncc(-c2ccc3[nH]nc(-c4cc5c(N6CCCCC6)nccc5[nH]4)c3n2)c1 [Compound 181, N,N-Dimethyl-1-(5-(3-(4-(piperidin-1l-yl)-1H-pyrrolo[3,2-c]pyridin-2-yl)-1H-pyrazolo[4,3-b]pyridin-5-yl)pyridin-3-yl)methanamine] | 23 | –
3 | > 10000 | 30 | CCCCC(=O)Nc1cncc(-c2ccc3[nH]nc(-c4cc5c(N6CCCCC6)nccc5[nH]4)c3n2)c1 [Compound 187, N-(5-(3-(4-(Piperidin-1-yl)-1H-pyrrolo[3,2-c]pyridin-2-yl)-1H-pyrazolo[4,3-b]pyridin-5-yl)pyridin-3-yl)pentanamide] | 54 | 42.2
